Results: patent US10172814B2, “Substituted pyridyl-cycloalkyl-carboxylic acids, compositions containing them and medical uses thereof” (BAYER PHARMA AKTIENGESELLSCHAFT, priority 2014, dated 2019)

Target: human PTGES (Homo sapiens (Human), UniProt O14684)
Assay: Human PTGES biochemical enzyme inhibition assay (conversion of PGH2 to PGE2, TR-FRET)
Settings: Enzymatic conversion of PGH2 to PGE2; read-out: Human PTGES IC50
Description: Human PTGES Biochemical Enzyme Inhibition Assay:
PTGES (Microsomal prostaglandin E synthase 1) is an enzyme that converts prostaglandin H2 (PGH2) to prostaglandin E2 (PGE2) in the presence of reduced glutathione (GSH).
Recombinant proteins (human isoforms) of PTGES containing a FLAG tag, expressed in baculovirus infected insect cells (Hi-5) and purified by affinity chromatography was used as enzyme in the assay. Substrate was prostaglandin H2 (Cayman Chemicals).
4 ul of a solution of human PTGES in assay buffer [100 mM sodium phosphate pH 7.2, 2.5 mM Glutathion reduced, 1 mM EDTA, 0.01% BSA, 0.4 mM DTT, 0.15 mM n-dodecylmaltoside] was added to the well containing test compound and incubated for 15-20 minutes to allow binding of the compound to the enzyme prior to the enzymatic reaction. The reaction was started by addition of 1 ul of an ice cold solution containing PGH2 (40 nM in assay buffer resulting in a final concentration of 8 nM PGH2 in the assay). […] The concentration of each isoform of PTGES was adapted to the activity of the respective enzyme preparation to maintain linear reaction properties within the reaction time. […] The reaction was stopped by addition of 1 ul of a solution containing 15 mM SnCl2 and 400 mM KF in water. SnCl2 converts the remaining unstable PGH2 to stable PGF2alpha. Then, 3 ul of the a first detection solution containing PGE2-D2 (Cisbio Bioassays, TR-FRET reagent, diluted according to the manufacturer's recommendation, typically 1:20 in reconstitution buffer) was added. […] The resulting mix was incubated overnight at 4° C. to allow the formation of a complex of PGE2 and the detection reagents. […] Dilution series were made prior to the assay in a 100 fold concentrated form by serial dilution. IC50 values were calculated by 4-Parameter fitting.

Sequence of human PTGES (O14684 whole entry): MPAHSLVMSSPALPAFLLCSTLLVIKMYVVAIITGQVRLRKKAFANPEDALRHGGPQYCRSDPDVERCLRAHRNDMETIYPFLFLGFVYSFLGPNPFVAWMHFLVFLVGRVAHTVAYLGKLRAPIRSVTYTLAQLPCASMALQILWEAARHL

Row | Compound | IC50
1 | CCOc1cncc(-c2ccc(C(C(=O)Nc3cccc(C(C)CC(=O)O)c3C)C3CCCC3)cc2)c1 (mixture of isomers) [Example 90, (3R/S)-3-[3-({(2R/S)-2-Cyclopentyl-2-[4-(5-ethoxypyridin-3-yl)phenyl]acetyl}amino)-2-methylphenyl]butanoic acid] | 108 nM
2 | Cc1c(NC(=O)C(c2ccc(-c3cncc(C(F)(F)F)c3)cc2)C2CCCC2)cccc1C(C)CC(=O)O (mixture of isomers) [Example 91, (3R/S)-3-(3-{[(2R/S)-2-Cyclopentyl-2-{4-[5-(trifluoromethyl)pyridin-3-yl]phenyl}acetyl]amino}-2-methylphenyl)butanoic acid] | 20.3 nM
3 | CCc1cncc(-c2ccc(C(C(=O)Nc3cccc(C(C)CC(=O)O)c3C)C3CCCC3)cc2)c1 (mixture of isomers) [Example 92, (3R/S)-3-[3-({(2R/S)-2-Cyclopentyl-2-[4-(5-ethylpyridin-3-yl)phenyl]acetyl}amino)-2-methylphenyl]butanoic acid] | 22 nM
4 | Cc1cc(-c2ccc(C(C(=O)Nc3cccc(C(C)CC(=O)O)c3C)C3CCCC3)cc2)cnc1C (mixture of isomers) [Example 93, (3R/S)-3-[3-({(2R/S)-2-Cyclopentyl-2-[4-(5,6-dimethylpyridin-3-yl)phenyl]acetyl}amino)-2-methylphenyl]butanoic acid] | 35.6 nM
5 | Cc1cncc(-c2ccc(C(C(=O)Nc3cccc(C(C)CC(=O)O)c3C)C3CCCC3)cc2)c1 (mixture of isomers) [Example 94, (3R/S)-3-[3-({(2R/S)-2-Cyclopentyl-2-[4-(5-methylpyridin-3-yl)phenyl]acetyl}amino)-2-methylphenyl]butanoic acid] | 32.3 nM
6 | Cc1c(NC(=O)C(c2ccc(-c3cncc(F)c3)cc2)C2CCCC2)cccc1C(C)CC(=O)O (mixture of isomers) [Example 95, (3R/S)-3-[3-({(2R/S)-2-Cyclopentyl-2-[4-(5-fluoropyridin-3-yl)phenyl]acetyl}amino)-2-methylphenyl]butanoic acid] | 41.7 nM
7 | Cc1ncc(-c2ccc(C(C(=O)Nc3cccc(C(C)CC(=O)O)c3C)C3CCCC3)cc2)cc1F (mixture of isomers) [Example 96, (3R/S)-3-[3-({(2R/S)-2-[4-(5-Fluoro-6-methylpyridin-3-yl)phenyl]-2-cyclopentylacetyl}amino)-2-methylphenyl]butanoic acid] | 36.9 nM
8 | Cc1ncc(-c2ccc(C(C(=O)Nc3cccc(C(C)CC(=O)O)c3C)C3CCCC3)cc2)cc1Cl (mixture of isomers) [Example 97, (3R/S)-3-[3-({(2R/S)-2-[4-(5-Chloro-6-methylpyridin-3-yl)phenyl]-2-cyclopentylacetyl}amino)-2-methylphenyl]butanoic acid] | 13 nM
9 | Cc1c(NC(=O)C(c2ccc(-c3cncc(C(F)F)c3)cc2)C2CCCC2)cccc1C(C)CC(=O)O (mixture of isomers) [Example 98, (3R/S)-3-(3-{[(2R/S)-2-Cyclopentyl-2-{4-[5-(difluoromethyl)pyridin-3-yl]phenyl}acetyl]amino}-2-methylphenyl)butanoic acid] | 33.8 nM
10 | CCOc1cncc(-c2ccc(C(C(=O)Nc3cccc(C(CC)CC(=O)O)c3C)C3CCCC3)cc2)c1 (mixture of isomers) [Example 107, (3R/S)-3-[3-({(2R/S)-2-Cyclopentyl-2-[4-(5-ethoxypyridin-3-yl)phenyl]acetyl}amino)-2-methylphenyl]pentanoic acid] | 106 nM
11 | Cc1ncc(-c2ccc(C(C(=O)Nc3cccc(C(CC(=O)O)C4CC4)c3C)C3CCCC3)cc2)cc1Cl (mixture of isomers) [Example 108, (3R/S)-3-[3-({(2R/S)-2-[4-(5-chloro-6-methylpyridin-3-yl)phenyl]-2-cyclopentylacetyl}amino)-2-methylphenyl]-3-cyclopropylpropanoic acid] | 31.9 nM
12 | Cc1c(NC(=O)C(c2ccc(-c3cncc(C(F)(F)F)c3)cc2)C2CCCC2)cccc1C(CC(=O)O)C1CC1 (mixture of isomers) [Example 109, (3R/S)-3-(3-{[(2R/S)-2-cyclopentyl-2-{4-[5-(trifluoromethyl)pyridin-3-yl]phenyl}acetyl]amino}-2-methylphenyl)-3-cyclopropylpropanoic acid] | 24.9 nM
13 | Cc1c(NC(=O)C(c2ccc(-c3cncc(Cl)c3)cc2)C2CCCC2)cccc1C(CC(=O)O)C1CC1 (mixture of isomers) [Example 110, (3R/S)-3-[3-({(2R/S)-2-[4-(5-chloropyridin-3-yl)phenyl]-2-cyclopentylacetyl}amino)-2-methylphenyl]-3-cyclopropylpropanoic acid] | 54.4 nM
14 | CCOc1cncc(-c2ccc(C(C(=O)Nc3cccc(C(CC(=O)O)C4CC4)c3C)C3CCCC3)cc2)c1 (mixture of isomers) [Example 111, (3R/S)-3-[3-({(2R/S)-2-cyclopentyl-2-[4-(5-ethoxypyridin-3-yl)phenyl]acetyl}amino)-2-methylphenyl]-3-cyclopropylpropanoic acid] | 53.9 nM
15 | Cc1c(NC(=O)C(c2ccc(-c3cncc(F)c3)cc2)C2CCCC2)cccc1C(CC(=O)O)C1CC1 (mixture of isomers) [Example 112, (3R/S)-3-[3-({(2R/S)-2-cyclopentyl-2-[4-(5-fluoropyridin-3-yl)phenyl]acetyl}amino)-2-methylphenyl]-3-cyclopropylpropanoic acid] | 51.9 nM
16 | Cc1cncc(-c2ccc(C(C(=O)Nc3cccc(C(CC(=O)O)C4CC4)c3C)C3CCCC3)cc2)c1 (mixture of isomers) [Example 113, (3R/S)-3-[3-({(2R/S)-2-cyclopentyl-2-[4-(5-methylpyridin-3-yl)phenyl]acetyl}amino)-2-methylphenyl]-3-cyclopropylpropanoic acid] | 140 nM
17 | CCc1cncc(-c2ccc(C(C(=O)Nc3cccc(C(CC(=O)O)C4CC4)c3C)C3CCCC3)cc2)c1 (mixture of isomers) [Example 114, (3R/S)-3-[3-({(2R/S)-2-cyclopentyl-2-[4-(5-ethylpyridin-3-yl)phenyl]acetyl}amino)-2-methylphenyl]-3-cyclopropylpropanoic acid] | 29.5 nM
18 | Cc1c(NC(=O)C(c2ccc(-c3cncc(C(F)(F)F)c3)c(F)c2)C2CCCC2)cccc1C(C)CC(=O)O (mixture of isomers) [Example 115, (3R/S)-3-(3-{[(2R/S)-2-Cyclopentyl-2-{3-fluoro-4-[5-(trifluoromethyl)pyridin-3-yl]phenyl}acetyl]amino}-2-methylphenyl)butanoic acid] | 18.5 nM
19 | Cc1ncc(-c2ccc(C(C(=O)Nc3cccc(C(C)CC(=O)O)c3C)C3CCCC3)cc2F)cc1Cl (mixture of isomers) [Example 120, (3R/S)-3-[3-({(2R/S)-2-[4-(5-Chloro-6-methylpyridin-3-yl)-3-fluorophenyl]-2-cyclopentylacetyl}amino)-2-methylphenyl]butanoic acid] | 15.9 nM
20 | Cc1c(NC(=O)C(c2ccc(-c3cncc(Cl)c3)c(F)c2)C2CCCC2)cccc1C(C)CC(=O)O (mixture of isomers) [Example 125, (3R/S)-3-[3-({(2R/S)-2-[4-(5-Chloropyridin-3-yl)-3-fluorophenyl]-2-cyclopentylacetyl}amino)-2-methylphenyl]butanoic acid] | 22.9 nM
21 | Cc1c(NC(=O)C(c2ccc(-c3cncc(Cl)c3)cc2)C2CCC2)cccc1C(C)CC(=O)O (mixture of isomers) [Example 135, (3R/S)-3-[3-({(2R/S)-2-[4-(5-Chloropyridin-3-yl)phenyl]-2-cyclobutylacetyl}amino)-2-methylphenyl]butanoic acid] | 86.2 nM
22 | Cc1c(NC(=O)C(c2ccc(-c3cncc(C(F)(F)F)c3)c(F)c2)C2CCC2)cccc1C(C)CC(=O)O (mixture of isomers) [Example 145, (3R/S)-3-(3-{[(2R/S)-2-Cyclobutyl-2-{3-fluoro-4-[5-(trifluoromethyl)pyridin-3-yl]phenyl}acetyl]amino}-2-methylphenyl)butanoic acid] | 50.4 nM
23 | Cc1c(NC(=O)C(c2ccc(-c3cncc(C(F)(F)F)c3)c(F)c2)C2CCC2)cccc1C(C)CC(=O)O (mixture of isomers) [Example 146, 3-{3-[(Cyclobutyl{3-fluoro-4-[5-(trifluoromethyl)pyridin-3-yl]phenyl}acetyl)amino]-2-methylphenyl}butanoic acid, Stereoisomeric Mixture 1] | 12.6 nM
24 | Cc1c(CCC(=O)O)cccc1NC(=O)C(c1ccc(-c2ccc(C(F)(F)F)nc2)cc1)C1CCCC1 (racemic) [Example 4, (R/S) 3-{3-[(Cyclopentyl{4-[6-(trifluoromethyl)pyridin-3-yl]phenyl}acetyl)amino]-2-methylphenyl}propanoic acid] | 1320 nM
25 | Cc1c(CCC(=O)O)cccc1NC(=O)C(c1ccc(-c2ccc(C#N)nc2)cc1)C1CCCC1 (racemic) [Example 7, (R/S) 3-[3-({[4-(6-Cyanopyridin-3-yl)phenyl](cyclopentyl)acetyl}amino)-2-methylphenyl]propanoic acid] | 3160 nM
